Experimental data as given in patent publication US20230151025A1, “SUBSTITUTED THIAZOLOPYRIDINES, SALTS THEREOF AND THEIR USE AS HERBICIDALLY ACTIVE SUBSTANCES” (Bayer Aktiengesellschaft, priority 2020, published 2023).

Legend:
Format in all cases: in vivo
[1] = test system: Matricaria inodora (MATIN); assay: Herbicidal pre-emergence action (A), 1280 g/ha; conditions: visual grading after ca. 3 weeks vs untreated controls
Text: (§1) ABUTH: Abutilon theophrasti AGSTE: Agrostis tenuis ALOMY: Alopecurus myosuroides AMARE Amaranthus retroflexus DIGSA: Digitaria sanguinalis ECHCG: Echinochloa crus-galli KCHSC: Kochia scoparia LOLRI: Lolium rigidum MATIN: Matricaria inodora POAAN: Poa annua POLCO: Polygonum convolvulus SETVI: Setaria viridis STEME: Stellaria media VERPE: Veronica persica VIOTR: Viola tricolor
(§2) Seeds of mono- and dicotyledonous weed plants were sown in plastic pots (double sowings with one species of mono- and one species of dicotyledonous weed plants per pot), in sandy loam, and covered with soil. The compounds according to the invention, formulated in the form of wettable powders (WP) or as emulsifiable concentrates (EC), were applied to the surface of the covering soil as aqueous suspension or emulsion, with the addition of 0.5% of an additive, at an application rate of 600 l of water per hectare (converted). Following treatment, the pots were placed in a greenhouse and kept under optimum growth conditions for the test plants. The visual grading of the damage to the test plants was carried out after ca. 3 weeks in comparison to untreated controls (herbicidal effect in percent (%): 100% effect=plants have died off, 0% effect=as control plants).
(§3) Tables A1 to A12, below, show the effects of selected compounds of the general formula (I) according to table 1 on various harmful plants and an application rate corresponding to 1280 g/ha obtained by the experimental procedure mentioned above.

Stellaria media (STEME) [2] = assay: Herbicidal pre-emergence action (A), 1280 g/ha; conditions: visual grading after ca. 3 weeks vs untreated controls
Text: as §1, §2, §3

[3] = test system: Echinochloa crus-galli (ECHCG); assay: Herbicidal pre-emergence action (A), 1280 g/ha; conditions: visual grading after ca. 3 weeks vs untreated controls, 100% = plants have died off, 0% = as control plants
Text: as §1, §2, §3

Setaria viridis (SETVI) [4] = assay: Herbicidal pre-emergence action (A), 1280 g/ha; conditions: visual grading after ca. 3 weeks vs untreated controls
Text: as §1, §2, §3

[5] = test system: Amaranthus retroflexus (AMARE); assay: Herbicidal post-emergence action (B), 1280 g/ha; conditions: rated visually after about 3 weeks vs untreated controls
Text: as §1
(§4) Seeds of mono- and dicotyledonous weed plants were placed in plastic pots in sandy loam soil (doubly sown with in each case one species of mono- or dicotyledonous weed plants per pot), covered with soil and cultivated in a greenhouse under controlled growth conditions. 2 to 3 weeks after sowing, the test plants were treated at the one-leaf stage. The compounds of the invention, formulated in the form of wettable powders (WP) or as emulsion concentrates (EC), were applied onto the green parts of the plants as aqueous suspension or emulsion with addition of 0.5% additive at a water application rate of 600 liters per hectare (converted). After the test plants had been kept in the greenhouse under optimum growth conditions for about 3 weeks, the activity of the preparations was rated visually in comparison to untreated controls. For example, 100% activity=the plants have died, 0% activity=like control plants.
(§5) Tables B1 to B12, below, show the effects of selected compounds of the general formula (I) according to table 1 on various harmful plants and an application rate corresponding to 1280 g/ha obtained by the experimental procedure mentioned above.

Setaria viridis (SETVI) [6] = assay: Herbicidal post-emergence action (B), 1280 g/ha; conditions: rated visually after about 3 weeks vs untreated controls
Text: as §1, §4, §5

Veronica persica (VERPE) [7] = assay: Herbicidal pre-emergence action (A), 1280 g/ha; conditions: visual grading after ca. 3 weeks vs untreated controls
Text: as §1, §2, §3

[8] = test system: Amaranthus retroflexus (AMARE); assay: Herbicidal pre-emergence action (A), 1280 g/ha; conditions: visual grading after ca. 3 weeks vs untreated controls
Text: as §1, §2, §3

[9] = test system: Kochia scoparia (KCHSC; Bassia scoparia); assay: Herbicidal pre-emergence action (A), 1280 g/ha; conditions: visual grading after ca. 3 weeks vs untreated controls
Text: as §1, §2, §3

Poa annua (POAAN) [10] = assay: Herbicidal pre-emergence action (A), 1280 g/ha; conditions: visual grading after ca. 3 weeks vs untreated controls, 100% = plants have died off, 0% = as control plants
Text: as §1, §2, §3

[11] = test system: Alopecurus myosuroides (ALOMY); assay: Herbicidal pre-emergence action (A), 1280 g/ha; conditions: visual grading after ca. 3 weeks vs untreated controls, 100% = plants have died off, 0% = as control plants
Text: as §1, §2, §3

Lolium rigidum (LOLRI) = assay: Herbicidal pre-emergence action (A), 1280 g/ha; conditions: visual grading after ca. 3 weeks vs untreated controls, 100% = plants have died off, 0% = as control plants
Text: as §1, §2, §3

Veronica persica (VERPE) [12] = assay: Herbicidal post-emergence action (B), 1280 g/ha
Text: as §1, §4, §5

[13] = test system: Kochia scoparia (KCHSC; Bassia scoparia); assay: Herbicidal post-emergence action (B), 1280 g/ha
Text: as §1, §4, §5

Poa annua (POAAN) [14] = assay: Herbicidal post-emergence action (B), 1280 g/ha; conditions: rated visually after about 3 weeks vs untreated controls
Text: as §1, §4, §5

[15] = test system: Abutilon theophrasti (ABUTH); assay: Herbicidal post-emergence action (B), 1280 g/ha; conditions: rated visually after about 3 weeks vs untreated controls
Text: as §1, §4, §5

[16] = test system: Echinochloa crus-galli (ECHCG); assay: Herbicidal post-emergence action (B), 1280 g/ha; conditions: rated visually after about 3 weeks vs untreated controls
Text: as §1, §4, §5

[17] = test system: Alopecurus myosuroides (ALOMY); assay: Herbicidal post-emergence action (B), 1280 g/ha; conditions: rated visually after about 3 weeks vs untreated controls
Text: as §1, §4, §5

[18] = test system: Digitaria sanguinalis (DIGSA); assay: Herbicidal pre-emergence action (A), 1280 g/ha; conditions: visual grading after ca. 3 weeks vs untreated controls, 100% = plants have died off, 0% = as control plants
Text: as §1, §2, §3

Stellaria media (STEME) [19] = assay: Herbicidal post-emergence action (B), 1280 g/ha
Text: as §1, §4, §5

Row | SMILES | herbicidal effect MATIN [1] [%] | herbicidal effect STEME (Stellaria media (STEME) [2]) [%] | ECHCG, herbicidal effect in percent (%) [3] [%] | herbicidal effect SETVI (Setaria viridis (SETVI) [4]) [%] | herbicidal activity AMARE [5] [%] | herbicidal activity SETVI (Setaria viridis (SETVI) [6]) [%] | herbicidal effect VERPE (Veronica persica (VERPE) [7]) [%] | herbicidal effect AMARE [8] [%] | herbicidal effect KCHSC [9] [%] | POAAN, herbicidal effect in percent (%) (Poa annua (POAAN) [10]) | ALOMY, herbicidal effect in percent (%) [11] [%] | LOLRI, herbicidal effect in percent (%) (Lolium rigidum (LOLRI)) | herbicidal effect VERPE (Veronica persica (VERPE) [12]) [%] | herbicidal effect KCHSC [13] [%] | herbicidal activity POAAN (Poa annua (POAAN) [14]) [%] | herbicidal activity ABUTH [15] [%] | herbicidal activity ECHCG [16] [%] | herbicidal activity ALOMY [17] [%] | DIGSA, herbicidal effect in percent (%) [18] [%] | herbicidal effect STEME (Stellaria media (STEME) [19]) [%]
1 | Cc1nc2nc(-c3ccccc3F)c(C)cc2s1 [Example I-001] | 90 | 90 | 100 | 100 | 90 | 90 | – | – | – | – | – | – | – | – | – | – | – | – | – | –
2 | Fc1cc(F)c(-c2nc3ncsc3cc2Cl)c(F)c1 [Example I-035] | 90 | 90 | 100 | 100 | 100 | 90 | 90 | 90 | 90 | 100 | 90 | 100 | 90 | 90 | 90 | 90 | 90 | 90 | – | –
3 | Fc1ccccc1-c1nc2nc(Cl)sc2cc1Br [Example I-053, 6-bromo-2-chloro-5-(2-fluorophenyl)thiazolo[4,5-b]pyridine] | – | 100 | – | – | – | – | – | – | 90 | 100 | – | – | – | 90 | – | 90 | – | 100 | 100 | 100
4 | COC(=O)c1nc2nc(-c3ccccc3F)c(Br)cc2s1 [Example I-054, methyl 6-bromo-5-(2-fluorophenyl)thiazolo[4,5-b]pyridine-2-carboxylate] | – | – | – | – | 100 | – | – | – | – | 100 | – | – | 90 | 90 | – | 90 | – | – | – | –
5 | CCc1cc2sc(S(C)(=O)=O)nc2nc1-c1ccccc1F [Example I-059] | – | – | – | 100 | 100 | – | – | – | 90 | 100 | – | – | 100 | 90 | – | 100 | – | – | 100 | –
6 | N#Cc1nc2nc(-c3ccccc3F)c(Br)cc2s1 [Example I-070, 6-bromo-5-(2-fluorophenyl)thiazolo[4,5-b]pyridine-2-carbonitrile] | – | – | – | 100 | 100 | – | – | 100 | – | – | – | – | – | – | – | 90 | – | – | – | –
7 | Cc1cccc(F)c1-c1nc2ncsc2cc1Br [Example I-088] | 90 | 90 | 100 | 100 | 100 | 90 | – | 90 | 90 | 100 | 100 | 100 | 100 | 100 | – | 90 | – | – | – | 100
8 | Cc1cc2scnc2nc1-c1cccnc1C [Example I-130] | – | – | – | 100 | – | – | – | 90 | – | 100 | – | – | 90 | 90 | – | 90 | – | – | – | –
9 | Cc1sccc1-c1ccc2scnc2n1 [Example I-133] | – | 90 | 100 | 100 | 90 | – | 90 | 90 | 90 | 90 | 100 | 100 | – | – | 100 | 90 | 90 | – | – | –
10 | CCc1cc2scnc2nc1C12CCCCC1O2 (stereo not shown) [Example I-152] | 90 | 90 | 100 | 100 | 100 | – | 90 | 90 | 100 | 100 | – | 100 | 100 | 90 | 100 | 90 | – | 100 | 100 | –
11 | Cc1cc2sc(S)nc2nc1-c1ccccc1Cl [Example I-169] | – | – | 90 | 90 | 90 | – | – | 90 | 90 | 100 | – | – | 90 | 90 | – | 100 | – | – | – | –
12 | Cc1c(Br)c(-c2ccccc2F)nc2ncsc12 [Example I-186] | – | – | – | – | 100 | – | – | – | – | – | – | – | 90 | – | – | 90 | – | – | – | 90
